Laboratory results taken from patent publication US20220305132A1, “COMBINATION THERAPY COMPRISING AN ANTI-CD19 ANTIBODY DRUG CONJUGATE AND A PI3K INHIBITOR OR A SECONDARY AGENT” (ADC THERAPEUTICS SA, priority 2019, published 2022).

How the values were obtained:
[1] = tested on: myelodysplastic syndromes (MDS) patients; conditions: cited from earlier work
[2] = molecular target: T1, CD19 (human, UniProt P15391 20-556); test: cell-based or functional assay
T1 sequence (looked up): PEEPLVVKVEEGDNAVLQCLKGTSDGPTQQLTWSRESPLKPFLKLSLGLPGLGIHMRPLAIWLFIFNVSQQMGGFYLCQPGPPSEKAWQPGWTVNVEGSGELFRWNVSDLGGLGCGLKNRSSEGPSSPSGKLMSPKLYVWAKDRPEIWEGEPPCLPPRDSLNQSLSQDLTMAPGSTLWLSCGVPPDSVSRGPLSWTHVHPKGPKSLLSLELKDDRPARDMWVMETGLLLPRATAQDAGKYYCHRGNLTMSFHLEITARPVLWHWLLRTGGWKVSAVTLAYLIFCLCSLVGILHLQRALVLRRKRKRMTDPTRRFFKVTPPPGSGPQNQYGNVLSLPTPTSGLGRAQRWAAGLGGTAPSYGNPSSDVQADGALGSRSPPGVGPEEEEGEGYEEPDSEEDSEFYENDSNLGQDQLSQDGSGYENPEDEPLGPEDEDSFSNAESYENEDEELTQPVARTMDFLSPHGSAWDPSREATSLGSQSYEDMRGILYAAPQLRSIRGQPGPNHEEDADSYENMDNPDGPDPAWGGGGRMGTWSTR

[3] = patients with a del(5q) chromosomal abnormality

Nc1cccc2c1CN(C1CCC(=O)NC1=O)C2=O (racemic) [Lenalidomide, 3-(7-amino-3-oxo-1H-isoindol-2-yl)piperidine-2,6-dione]
Adverse events ([1]; MDS patients): neutropenia and thrombocytopenia, pruritus, rash, diarrhea | transfusion independence or a reduction of at least 50% of pre-treatment RBC transfusion levels ([1]; non-del(5q) patients with confirmed low- and intermediate-1 risk): 43 % of patients | complete cytogenetic remission [1, 3]: 45 % of patients | minor cytogenetic remission [1, 3]: 28% | red blood cell (RBC) transfusion independence [1, 3]: 67 % of patients

B1: ADCx19 (antibody, V domains shown)
VH: QVQLVQPGAEVVKPGASVKLSCKTSGYTFTSNWMHWVKQAPGQGLEWIGEIDPSDSYTNYNQNFQGKAKLTVDKSTSTAYMEVSSLRSDDTAVYYCARGSNPYYYAMDYWGQGTSVTVS
VL: EIVLTQSPAIMSASPGERVTMTCSASSGVNYMHWYQQKPGTSPRRWIYDTSKLASGVPARFSGSGSGTSYSLTISSMEPEDAATYYCHQRGSYTFGGGTKLEIK
Median IC50, MTT proliferation assay, 96 h exposure, 48 B-cell lymphoma lines [2]: 4 pM
